Here are results for 10 molecules from ChEMBL document CHEMBL1201862, “PubChem BioAssay data set” (2004).

Activity calls are given as the source filed them.

Test [1] is described as follows: Luminescence Cell-Based Dose Confirmation HTS to Identify Activators of 5'UTR Stem-Loop Driven Alpha-Synuclein mRNA Translation in H4 Neuroglioblastoma Cells. [Related pubchem assays: 1829 (Project Summary), 1814 (Primary HTS)]. The class given is functional.
Test [2] deals with Lysosomal acid glucosylceramidase (Homo sapiens, UniProt P04062). Description: Dose response cell-based high throughput screening assay to identify enhancers of beta-glucosidase activity. [Related pubchem assays: 784 ]. Type of test: functional.
The nature of test [3]: Luminescence Cell-Based Dose Response HTS to Identify Activators of Luciferase Translation or Activity in H4 […] Cells. [Related pubchem assays: 1829 (Project Summary), 1814 (Primary HTS)]. Type of test: functional.
Test [4] deals with H4. Nature of the test: Luminescence Cell-Based Dose Response HTS to Identify Activators of 5'UTR Stem-Loop Driven Prion Protein mRNA Translation in H4 Neuroglioblastoma Cells. [Related pubchem assays: 1829 (Project Summary), 1814 (Primary HTS)]. The class given is functional. As to conditions: Homo sapiens.
Test [5] is described as follows: Counterscreen for IDE inhibitors: Luminescence-based cell-based high throughput dose response assay to identify compounds that are cytotoxic to HEK cells. [Related pubchem assays: 434962 (Primary screen (IDE inhibitors in singlicate)), 449730 (Counterscreen (Cytotoxicity in triplicate)), 435028 (Confirmation (IDE inhibitors in triplicate)) …. The settings on record: HEK293. The class given is functional. On the technique in general: Counterscreens check selectivity or assay interference.

Test [6] concerns the target T1, Insulin-degrading enzyme (Homo sapiens, UniProt P14735).
T1 sequence (P14735 whole entry): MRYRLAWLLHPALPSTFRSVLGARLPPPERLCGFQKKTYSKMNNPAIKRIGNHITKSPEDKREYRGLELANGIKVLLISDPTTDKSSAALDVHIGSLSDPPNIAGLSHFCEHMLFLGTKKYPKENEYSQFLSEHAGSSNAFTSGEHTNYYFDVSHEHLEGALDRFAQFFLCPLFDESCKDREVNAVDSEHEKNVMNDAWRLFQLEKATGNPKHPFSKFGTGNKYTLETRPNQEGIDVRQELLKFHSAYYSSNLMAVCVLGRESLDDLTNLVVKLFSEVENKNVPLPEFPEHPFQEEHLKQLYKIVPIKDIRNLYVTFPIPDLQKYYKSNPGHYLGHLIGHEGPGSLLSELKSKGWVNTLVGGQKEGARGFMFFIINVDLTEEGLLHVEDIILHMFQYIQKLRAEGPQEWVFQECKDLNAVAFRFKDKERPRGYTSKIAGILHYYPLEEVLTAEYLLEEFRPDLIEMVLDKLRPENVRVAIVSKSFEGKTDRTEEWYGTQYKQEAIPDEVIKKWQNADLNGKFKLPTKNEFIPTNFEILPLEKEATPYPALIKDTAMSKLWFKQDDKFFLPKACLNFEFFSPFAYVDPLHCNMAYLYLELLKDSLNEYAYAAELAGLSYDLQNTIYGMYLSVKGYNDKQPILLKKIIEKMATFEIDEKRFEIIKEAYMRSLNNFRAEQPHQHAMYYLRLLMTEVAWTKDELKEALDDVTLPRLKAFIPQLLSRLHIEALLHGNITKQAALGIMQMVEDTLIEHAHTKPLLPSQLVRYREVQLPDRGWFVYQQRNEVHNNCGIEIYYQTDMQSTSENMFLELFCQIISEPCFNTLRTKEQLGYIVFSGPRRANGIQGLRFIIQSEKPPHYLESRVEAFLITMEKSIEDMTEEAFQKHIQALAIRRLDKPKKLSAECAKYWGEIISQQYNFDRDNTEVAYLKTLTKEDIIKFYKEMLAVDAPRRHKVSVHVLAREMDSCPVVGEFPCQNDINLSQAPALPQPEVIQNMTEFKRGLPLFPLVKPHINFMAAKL
Description: Dose Response: Fluorescence polarization-based cell-based high throughput dose response assay for inhibitors of insulin-degrading enzyme (IDE). [Related pubchem assays: 434962 (Primary screen (IDE inhibitors in singlicate)), 449730 (Counterscreen (Cytotoxicity in triplicate)), 435028 (Confirmation (IDE inhibitors in triplicate)), 434984 (Summary …. The class given is functional. For orientation: Polarisation of emitted light reports the rotation of a fluorescent probe.

In test [7] the target is Bcl-2-like protein 10 (Homo sapiens, UniProt Q9HD36). Nature of the test: Bcl-B/TR3 peptide binding disruption – biochemical, fluorescence polarization, FITC-TR3 peptide, selectivity assay for Bfl-1 inhibitor project, primary screen (AID 748).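 Note: fluorescence polarization from a fluorescein-labelled TR3 peptide binding purified Bcl-B.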
The target in test [8] is Estrogen receptor beta (Homo sapiens, UniProt Q92731). Description: blockers of SRC-3 recruitment to ERβ – biochemical, ELISA, streptavidin-HRP readout, orthogonal assay, confirmation (AID 1060). A general note: An ELISA detects its analyte on a solid surface through an enzyme-linked reagent.
Test [9] addresses Induced myeloid leukemia cell differentiation protein Mcl-1 (Homo sapiens, UniProt Q07820). The class given is functional.
Test [10] has as its target T2, Tyrosine-protein phosphatase non-receptor type 7 (Homo sapiens, UniProt P35236).
T2 sequence (P35236 whole entry): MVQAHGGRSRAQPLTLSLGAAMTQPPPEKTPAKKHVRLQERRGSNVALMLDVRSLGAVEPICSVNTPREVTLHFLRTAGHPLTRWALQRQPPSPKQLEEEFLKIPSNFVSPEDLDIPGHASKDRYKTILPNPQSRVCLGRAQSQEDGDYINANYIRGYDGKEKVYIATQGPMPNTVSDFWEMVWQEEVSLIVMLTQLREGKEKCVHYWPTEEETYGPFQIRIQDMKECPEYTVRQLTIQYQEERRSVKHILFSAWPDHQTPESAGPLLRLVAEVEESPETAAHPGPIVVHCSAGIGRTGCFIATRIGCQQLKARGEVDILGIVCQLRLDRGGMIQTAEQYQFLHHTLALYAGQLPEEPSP
Nature of the test: redox-active compounds inhibiting HePTP phosphatase – biochemical, fluorescence, mechanism study (AID 2068). The class given is functional.

For test [11], the target named is Cytochrome P450 2D6 (Homo sapiens, UniProt P10635). Nature of the test: qHTS Assay for Inhibitors and Substrates of Cytochrome P450 2D6. [Related pubchem assays: 410 ]. Type of test: ADME. The settings on record: read-out: Potency.
Test [12] concerns the target T3, Neuropeptide Y receptor type 2 (Homo sapiens, UniProt P49146).
T3 sequence (P49146 whole entry): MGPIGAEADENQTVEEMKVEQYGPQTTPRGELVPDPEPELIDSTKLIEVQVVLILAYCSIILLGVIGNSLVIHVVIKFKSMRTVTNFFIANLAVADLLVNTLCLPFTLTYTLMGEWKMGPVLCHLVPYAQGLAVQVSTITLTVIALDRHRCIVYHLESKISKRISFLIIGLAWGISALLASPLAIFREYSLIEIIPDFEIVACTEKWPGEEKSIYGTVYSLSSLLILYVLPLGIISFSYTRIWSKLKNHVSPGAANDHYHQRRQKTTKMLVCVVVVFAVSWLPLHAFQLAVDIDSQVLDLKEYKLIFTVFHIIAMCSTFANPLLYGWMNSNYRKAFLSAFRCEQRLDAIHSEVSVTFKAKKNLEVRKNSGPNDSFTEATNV
Nature of the test: Fluorescence-based counterscreen for agonists of NPY-Y1: cell-based high-throughput dose response assay for agonists of NPY-Y2. Type of test: functional.

In test [13] the test system is HEK293. Nature of the test: Fluorescence-based counterscreen for potentiators or agonists of NPY-Y1: cell-based high-throughput dose response assay for inhibitors of cyclic nucleotide gated ion channel (CNGC) activity. In this assay, the parental HEK293 cell line transfected with a cyclic-nucleotide gated ion channel (CNGC)-based cAMP sensor is used to measure inhibition of isoproterenol-induced CNGC …. The class given is functional. The settings on record: Homo sapiens.

Test [14] deals with T4, Neuropeptide Y receptor type 1 (Homo sapiens, UniProt P25929).
T4 sequence (P25929 whole entry): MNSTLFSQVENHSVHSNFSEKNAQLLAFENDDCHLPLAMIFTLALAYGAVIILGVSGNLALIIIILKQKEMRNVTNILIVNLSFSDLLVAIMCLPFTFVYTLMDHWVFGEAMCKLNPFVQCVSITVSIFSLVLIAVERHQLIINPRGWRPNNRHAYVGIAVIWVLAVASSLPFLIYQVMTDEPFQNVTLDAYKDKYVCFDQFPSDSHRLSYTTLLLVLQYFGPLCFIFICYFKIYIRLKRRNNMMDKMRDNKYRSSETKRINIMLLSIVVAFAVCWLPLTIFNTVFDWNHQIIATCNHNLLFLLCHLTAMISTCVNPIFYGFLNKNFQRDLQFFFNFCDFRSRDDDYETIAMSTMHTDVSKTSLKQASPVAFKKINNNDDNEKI
Nature of the test: Fluorescence-based dose response cell-based high-throughput screening assay for agonists of NPY-Y1. [Related pubchem assays: 1697 (Screening assay (NPY-Y1 agonists).), 1359 (Screening assay (NPY-Y2 potentiators or agonists).), 1304 (Screening assay (NPY-Y1 potentiators or agonists).), 1704 (Screening assay (CNGC inhibitors).), 1791 (Summary AID.)]. Type of test: functional.

In test [15] the test system is HEK293. Nature of the test: Fluorescence-based counterscreen for potentiators or agonists of NPY-Y2: cell-based high-throughput dose response assay to identify inhibitors of cyclic nucleotide gated ion channel (CNGC) activity. In this assay, the parental HEK293 cell line transfected with a cyclic-nucleotide gated ion channel (CNGC)-based cAMP sensor is used to measure inhibition of isoproterenol-induced CNGC activity by test compound. The class given is functional. As to conditions: Homo sapiens.

The target of test [16] is T3, Neuropeptide Y receptor type 2. Description: Fluorescence-based cell-based high-throughput dose response assay for agonists of NPY-Y2. [Related pubchem assays: 1703 (Screening assay (CNGC inhibitors).), 1359 (Screening assay (NPY-Y2 potentiators or agonists).), 1304 (Screening assay (NPY-Y1 potentiators or agonists).), 1710 (Screening assay (NPY-Y2 agonists).), 1791 (Summary AID.)]. Type of test: functional.

The target of test [17] is T4, Neuropeptide Y receptor type 1. Description: Fluorescence-based counterscreen for agonists of NPY-Y2: cell-based high-throughput dose response assay for agonists of NPY-Y1. The class given is functional.
Test [18] deals with G-protein coupled receptor 35 (Homo sapiens, UniProt Q9HC97). Description: inhibition of zaprinast-stimulated GPR35 beta-arrestin translocation – imaging, U2OS, beta-arrestin-GFP, zaprinast agonist, primary screen (AID 2058).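 Note: antagonist potency meaning inhibition of agonist-induced arrestin redistribution.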 The class given is functional.
The subject of test [19] is Streptococcus. Nature of the test: Luminescence Microorganism-Based Dose Response Follow up to Identify Compounds Cytotoxic to Streptococcus. [Related pubchem assays: 1677 (Project Summary), 1915, 1914, 1902 (Retest at Dose), 1900 (Counter Screen), 1662 (Primary HTS)]. The class given is functional, organism-based.
The target in test [20] is T5, Neuropeptides B/W receptor type 1 (Homo sapiens, UniProt P48145).
T5 sequence (P48145 whole entry): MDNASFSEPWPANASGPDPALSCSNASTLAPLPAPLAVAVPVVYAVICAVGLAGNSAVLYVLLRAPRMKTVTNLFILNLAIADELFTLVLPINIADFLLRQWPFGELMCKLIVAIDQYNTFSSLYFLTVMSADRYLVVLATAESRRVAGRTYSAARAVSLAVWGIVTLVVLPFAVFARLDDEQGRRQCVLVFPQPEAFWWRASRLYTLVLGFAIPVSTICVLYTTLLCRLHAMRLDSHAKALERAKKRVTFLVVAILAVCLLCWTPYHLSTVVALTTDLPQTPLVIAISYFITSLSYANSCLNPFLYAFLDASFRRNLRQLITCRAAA
Nature of the test: Fluorescence-based dose response cell-based high throughput screening assay to identify antagonists of the G-protein coupled receptor 7 (GPR7). [Related pubchem assays: 1952 (Screening assay (GPR7 antagonists).), 1880 (Summary AID.)]. The class given is functional.

Test [21] concerns the target T6, Melanin-concentrating hormone receptor 1 (Homo sapiens, UniProt Q99705). Nature of the test: Fluorescence-based counterscreen for antagonists of the G-protein coupled receptor 7 (GPR7): cell-based high throughput dose response assay to identify antagonists of the melanin-concentrating hormone receptor 1 (MCHR1). The class given is functional.
Test [22] has as its target T6, Melanin-concentrating hormone receptor 1. Nature of the test: Late-stage fluorescence-based counterscreen for antagonists of the G-protein coupled receptor 7 (GPR7): cell-based dose response assay to identify antagonists of the melanin-concentrating hormone receptor 1 (MCHR1). [Related pubchem assays (depositor defined):AID1861, AID1880, AID1952, AID2148, AID2251, AID2257, AID485339]. Type of test: functional.

Test [23] deals with Peroxisome proliferator-activated receptor gamma (Homo sapiens, UniProt P37231). Description: competitive ligand displacement at PPARg – biochemical, TR-FRET, LanthaScreen, PPARg partial agonist project, dose response (AID 504446).
Chain of Peroxisome proliferator-activated receptor gamma (P37231 whole entry): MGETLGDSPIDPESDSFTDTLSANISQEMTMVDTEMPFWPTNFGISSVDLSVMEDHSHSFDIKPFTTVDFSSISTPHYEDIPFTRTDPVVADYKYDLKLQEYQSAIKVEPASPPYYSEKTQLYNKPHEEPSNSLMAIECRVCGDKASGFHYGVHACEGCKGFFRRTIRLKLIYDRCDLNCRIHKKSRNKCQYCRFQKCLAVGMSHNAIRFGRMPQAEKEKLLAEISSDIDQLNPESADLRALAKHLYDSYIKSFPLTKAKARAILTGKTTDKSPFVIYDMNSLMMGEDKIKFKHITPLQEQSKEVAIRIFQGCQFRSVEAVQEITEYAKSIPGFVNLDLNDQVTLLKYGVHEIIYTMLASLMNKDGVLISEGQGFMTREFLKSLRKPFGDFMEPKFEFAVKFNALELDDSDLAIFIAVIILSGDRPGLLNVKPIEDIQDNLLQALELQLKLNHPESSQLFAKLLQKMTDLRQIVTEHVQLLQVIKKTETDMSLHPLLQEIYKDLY

T6 sequence (Q99705 whole entry): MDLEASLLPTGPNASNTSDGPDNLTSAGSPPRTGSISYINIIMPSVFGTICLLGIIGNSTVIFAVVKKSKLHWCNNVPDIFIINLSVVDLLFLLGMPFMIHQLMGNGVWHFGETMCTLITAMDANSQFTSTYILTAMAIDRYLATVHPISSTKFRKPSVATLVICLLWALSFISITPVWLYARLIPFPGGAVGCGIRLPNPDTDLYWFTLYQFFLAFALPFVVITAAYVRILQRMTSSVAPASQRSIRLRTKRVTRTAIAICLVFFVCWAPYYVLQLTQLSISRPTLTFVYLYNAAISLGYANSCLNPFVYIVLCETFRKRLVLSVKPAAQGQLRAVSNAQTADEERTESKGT
Chain of Induced myeloid leukemia cell differentiation protein Mcl-1 (Q07820 whole entry): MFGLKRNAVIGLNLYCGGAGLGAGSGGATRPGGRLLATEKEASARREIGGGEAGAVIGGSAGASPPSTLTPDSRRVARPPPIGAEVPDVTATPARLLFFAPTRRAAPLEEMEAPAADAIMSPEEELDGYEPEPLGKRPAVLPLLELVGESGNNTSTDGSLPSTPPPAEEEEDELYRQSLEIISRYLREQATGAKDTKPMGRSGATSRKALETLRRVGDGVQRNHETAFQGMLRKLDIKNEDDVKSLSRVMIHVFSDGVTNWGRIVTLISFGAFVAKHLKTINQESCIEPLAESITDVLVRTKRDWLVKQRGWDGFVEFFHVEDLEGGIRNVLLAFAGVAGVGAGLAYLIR
Chain of Estrogen receptor beta (Q92731 whole entry): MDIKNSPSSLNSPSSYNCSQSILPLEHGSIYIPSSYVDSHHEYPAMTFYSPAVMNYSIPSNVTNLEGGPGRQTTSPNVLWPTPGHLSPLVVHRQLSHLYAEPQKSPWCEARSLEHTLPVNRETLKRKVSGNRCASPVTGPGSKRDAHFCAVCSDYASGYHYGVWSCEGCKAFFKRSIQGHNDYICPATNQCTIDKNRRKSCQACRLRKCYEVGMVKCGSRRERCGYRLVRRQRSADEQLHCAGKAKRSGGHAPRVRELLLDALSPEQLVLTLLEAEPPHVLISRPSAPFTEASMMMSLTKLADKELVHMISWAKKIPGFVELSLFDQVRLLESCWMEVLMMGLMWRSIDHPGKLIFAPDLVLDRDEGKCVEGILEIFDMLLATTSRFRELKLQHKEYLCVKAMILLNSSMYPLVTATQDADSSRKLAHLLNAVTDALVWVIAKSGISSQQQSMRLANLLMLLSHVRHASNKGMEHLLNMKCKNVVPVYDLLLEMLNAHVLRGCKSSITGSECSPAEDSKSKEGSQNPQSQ
Chain of G-protein coupled receptor 35 (Q9HC97 whole entry): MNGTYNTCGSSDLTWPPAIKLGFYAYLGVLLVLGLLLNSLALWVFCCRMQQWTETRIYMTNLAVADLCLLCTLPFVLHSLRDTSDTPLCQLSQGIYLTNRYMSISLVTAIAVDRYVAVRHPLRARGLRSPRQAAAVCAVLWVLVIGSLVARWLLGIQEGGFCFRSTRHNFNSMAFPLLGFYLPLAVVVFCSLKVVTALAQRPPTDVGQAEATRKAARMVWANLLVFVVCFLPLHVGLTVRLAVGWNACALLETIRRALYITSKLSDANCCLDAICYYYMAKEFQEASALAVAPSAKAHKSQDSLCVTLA
Chain of Lysosomal acid glucosylceramidase (P04062 whole entry): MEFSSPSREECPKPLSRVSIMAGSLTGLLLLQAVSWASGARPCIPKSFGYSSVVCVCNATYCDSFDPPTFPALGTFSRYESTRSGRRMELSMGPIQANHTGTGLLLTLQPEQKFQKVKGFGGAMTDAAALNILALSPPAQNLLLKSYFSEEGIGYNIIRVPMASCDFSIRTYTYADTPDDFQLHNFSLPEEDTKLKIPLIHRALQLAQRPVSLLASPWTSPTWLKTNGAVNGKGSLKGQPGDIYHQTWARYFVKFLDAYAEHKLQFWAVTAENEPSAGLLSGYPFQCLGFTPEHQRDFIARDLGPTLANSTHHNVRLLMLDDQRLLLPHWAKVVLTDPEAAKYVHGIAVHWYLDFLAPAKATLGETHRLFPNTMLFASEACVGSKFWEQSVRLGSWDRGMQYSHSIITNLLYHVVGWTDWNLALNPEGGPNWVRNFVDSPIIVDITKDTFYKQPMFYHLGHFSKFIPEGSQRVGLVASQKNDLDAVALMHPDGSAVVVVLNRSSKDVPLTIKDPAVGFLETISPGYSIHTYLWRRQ
Chain of Bcl-2-like protein 10 (Q9HD36 whole entry): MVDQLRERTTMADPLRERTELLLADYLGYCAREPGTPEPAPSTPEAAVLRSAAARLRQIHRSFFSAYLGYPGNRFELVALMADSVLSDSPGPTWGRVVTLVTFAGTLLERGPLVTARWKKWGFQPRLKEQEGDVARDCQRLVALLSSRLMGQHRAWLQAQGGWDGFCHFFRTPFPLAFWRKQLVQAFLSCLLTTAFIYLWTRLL
Chain of Cytochrome P450 2D6 (P10635 whole entry): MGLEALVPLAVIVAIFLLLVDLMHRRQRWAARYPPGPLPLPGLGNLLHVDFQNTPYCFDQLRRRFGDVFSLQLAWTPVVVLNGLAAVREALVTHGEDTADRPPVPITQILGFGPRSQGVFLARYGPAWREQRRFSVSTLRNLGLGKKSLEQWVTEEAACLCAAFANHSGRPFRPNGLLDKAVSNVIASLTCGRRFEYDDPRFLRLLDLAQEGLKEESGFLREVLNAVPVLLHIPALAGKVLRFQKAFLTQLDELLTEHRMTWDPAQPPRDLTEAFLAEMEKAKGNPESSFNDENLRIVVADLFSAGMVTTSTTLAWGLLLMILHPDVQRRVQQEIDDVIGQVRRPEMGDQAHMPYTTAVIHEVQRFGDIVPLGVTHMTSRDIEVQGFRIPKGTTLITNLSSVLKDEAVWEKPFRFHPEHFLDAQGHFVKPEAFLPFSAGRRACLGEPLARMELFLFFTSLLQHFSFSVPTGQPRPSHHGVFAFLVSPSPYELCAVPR

Take `COC(=O)c1sc(NC(=O)c2csc3c2CCCC3)nc1C`: the EC50 in test [1] is 0.155 µM (active); in test [2], > 50 µM (not active); in [3] it was 0.575 µM (active); in [4], 1.8 µM (active).
Consider `CN(C)c1ccc(/C=C2\SC(N3CCCCC3)=NC2=O)cc1`, for which the values for the IC50 in test [5] and in test [6] were 23 µM (not active) and 17.9 µM (not active), respectively.
As to `O=C(NCc1ccccn1)c1ccc2nc(-c3ccco3)c(-c3ccco3)nc2c1`, the half-inhibitory concentration (IC50) in [7] is 9.92 µM (active); in [8], 4.9 µM (not active); in [9], 2.28 µM (active); in test [10] it was 3.99 µM (active).
Regarding `COc1ccc2c(c1O)-c1c(OC)c(OC)cc3c1[C@@H](C2)N(C)CC3`, the AC50 in test [11] is 15.8 µM (inconclusive).
Regarding `CC1CC(C)CN(CCCNC(=O)c2cc3c(O)nc4ccccc4c3n2C)C1` (stereo not drawn), the EC50 in test [12] and in test [14] was > 35.4 µM (not active) throughout. Moreover, the IC50 in test [13] was 19.8 µM (not active).
Take `COc1ccc(-n2nnnc2SCC(=O)NCCc2ccccc2)cc1OC`: the EC50 in [15], in test [16] and in [17] was > 35.4 µM (not active) throughout.
Regarding `CCCCCOC(=O)c1ccc(NC(=O)c2cccc(NC(=O)c3ccccc3C(=O)O)c2)cc1`, the IC50 in [18] was 1 µM (active).
For the molecule `CN1C(=O)/C(=C\c2cccn2-c2ccc3ccccc3c2)C(=O)NC1=S`, the EC50 in [19] is on record as > 260 µM (not active).
For the molecule `COc1ccc(Oc2c(Cl)cnn(-c3ccc(C)cc3)c2=O)cc1`, the IC50 in [20] is 2.94 µM (active); in [21], 23.6 µM (not active); in test [22] it was 17 µM (inactive).
Regarding `O=C(O)CCN1C(=O)/C(=C/c2ccc(C(F)(F)F)cc2C(F)(F)F)SC1=S`, the IC50 in test [23] is 2 µM (active).

The term EC50 denotes the concentration that produces a half-maximal response. As usually defined, the IC50 is the midpoint of a concentration-inhibition curve.
